Bounds are passed on as bounds.

Results on 4 compounds are retold here after EP0478445B1, “Composition for cleaning and decontaminating, in particular surgical instruments” (priority 1990, dated 1992).

Data set [1] can be described thus: Characteristics of the ingredients (pH, solubility). Type of data set: physicochemical.
The subject of a further data set is homme. The note with it: cited from earlier work.
The nature of data set [2]: Irritancy of the ingredient.

Consider `CCCCCCCCC=CCCCCCCCC1=NCCN1CCO` [1-hydroxyéthyl-2-heptadécényl-imidazoline], for which, in data set [1], the solubilité result is “soluble dans la plupart des solvants polaires et apolaires”.

Turning to `C=O` [formaldéhyde], in the data set with homme (man, inhalation), the “larmoiements (inhalation)” value is ≥ 0,1 ppm and the oedème pulmonaire is recorded as 50 ppm. In addition, the irritation oculaire superficielle with homme (some exposed persons) was ≥ 0,4 ppm. Take `CCCCCCCCCCCC[N+](C)(C)CC(=O)[O-]` [lauryldiméthylcarboxyméthylammonium bétaine]: in data set [2], the “irritation des muqueuses et des yeux” value is recorded as “n'irrite ni les muqueuses ni les yeux”.

Take “N|N'(N"-2-hydroxyéthyl-N"-carboxyéthylaminoéthyl) amidoacétate|-N,N-diméthyl-N-coco-ammoniumbétaine”: the solubilité entry in data set [1] was “soluble de façon limpide dans l'eau, l'éthanol, l'isopropanol”. In data set [1] (at 10%), the “pH (à 10%)” value was 8-9.
